One block for each compound: values may come before it.
Columns and labels:
[1] = tested on: PC43–10 CHO cells expressing human RFC; assay: Growth inhibition; settings: CHO subline expressing human RFC; drug up to 1000 nM, up to 96 h; mean (SE)
[2] = tested on: NCI-IGROV1 EOC xenografts; assay: In vivo efficacy trial, subcutaneous NCI-IGROV1 EOC xenografts in SCID mice; settings: for Antitumor activity toward NCI-IGROV1 tumors in vivo (in words): SCID mice, folate-deficient diet
FRβ = FRβ (Homo sapiens, UniProt P14207); assay: Competitive [3H]folic acid binding to FRβ in D4 CHO cells; settings: 50 nM [3H]folic acid, 15 min, 0 °C
FRα = FRα (Homo sapiens, UniProt P15328); assay: Competitive [3H]folic acid binding to FRα in RT16 CHO cells; settings: 50 nM [3H]folic acid, 15 min, 0 °C
[3] = tested on: D4 CHO cells expressing human FRβ; settings: for IC50: Homo sapiens, CHO, read-out: IC50 growth inhibition, FRβ, D4; for IC50 growth inhibition, FRβ, D4: without folic acid, mean (SE)
[4] = tested on: KB human tumor cells (RFC/FRα/PCFT); assay: Growth inhibition of KB human tumor cells, with and without 200 nM folic acid; settings: without folic acid; mean (SE)
[5] = tested on: RT16 CHO cells expressing human FRα
PCFT = target: T1, PCFT (Homo sapiens, UniProt Q96NT5); assay: Competitive inhibition of [3H]MTX uptake by PCFT in R2/PCFT4 cells; assay type: cell-based
T1 sequence (Q96NT5 1-459): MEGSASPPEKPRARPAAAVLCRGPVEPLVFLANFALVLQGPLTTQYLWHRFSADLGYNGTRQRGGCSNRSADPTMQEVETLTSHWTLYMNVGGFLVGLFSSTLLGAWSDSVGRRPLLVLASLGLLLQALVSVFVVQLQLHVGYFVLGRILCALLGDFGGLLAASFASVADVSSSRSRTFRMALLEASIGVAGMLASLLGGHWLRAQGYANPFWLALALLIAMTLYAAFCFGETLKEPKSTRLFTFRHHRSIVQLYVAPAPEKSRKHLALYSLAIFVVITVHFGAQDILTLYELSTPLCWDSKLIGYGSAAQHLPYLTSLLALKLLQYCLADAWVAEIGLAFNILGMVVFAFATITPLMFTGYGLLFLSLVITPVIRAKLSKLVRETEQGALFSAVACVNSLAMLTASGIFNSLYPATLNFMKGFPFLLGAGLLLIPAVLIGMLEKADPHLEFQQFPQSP

Sequence of FRα (P15328 25-257): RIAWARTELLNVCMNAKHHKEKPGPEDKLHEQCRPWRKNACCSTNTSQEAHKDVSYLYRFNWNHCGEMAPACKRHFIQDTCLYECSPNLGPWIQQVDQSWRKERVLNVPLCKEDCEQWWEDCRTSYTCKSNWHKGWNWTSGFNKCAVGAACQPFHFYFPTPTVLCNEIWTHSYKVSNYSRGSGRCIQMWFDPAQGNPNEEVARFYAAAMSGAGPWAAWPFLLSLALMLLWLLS
Sequence of FRβ (P14207 17-255): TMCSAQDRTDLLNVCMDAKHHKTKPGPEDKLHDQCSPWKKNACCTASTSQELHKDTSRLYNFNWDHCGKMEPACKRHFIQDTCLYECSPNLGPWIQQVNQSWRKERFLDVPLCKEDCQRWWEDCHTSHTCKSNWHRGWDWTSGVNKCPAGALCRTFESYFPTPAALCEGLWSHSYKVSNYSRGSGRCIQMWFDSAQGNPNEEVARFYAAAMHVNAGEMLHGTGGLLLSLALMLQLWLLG

SMILES: Nc1nc2[nH]c(CCCCc3ccc(C(=O)N[C@@H](CCC(=O)O)C(=O)O)cc3)cc2c(=O)[nH]1 [Compound 1, reference compound]
- IC50 growth inhibition, RFC, PC43–10 [1]: no activity

SMILES: Nc1nc2[nH]c(CCCCc3ccc(C(=O)N[C@@H](CCC(=O)O)C(=O)O)nc3)cc2c(=O)[nH]1 [Compound 6, (5-(4-(2-Amino-4-oxo-4,7-dihydro-3H-pyrrolo[2,3-d]pyrimidin-6-yl)butyl)picolinoyl)-L-glutamic Acid]
- Antitumor activity toward NCI-IGROV1 tumors in vivo (in words) [2]: excellent activity
- Antitumor activity, standard (high folate) diet ([2]; mice on standard folate-replete diet): abolished
- IC50 growth inhibition, RFC, PC43–10 [1]: no activity

- Relative binding affinity to FRβ (vs folic acid) (FRβ): sharply reduced
- Relative binding affinity to FRα (vs folic acid) (FRα): sharply reduced
SMILES: Nc1nc2[nH]c(CCCCc3cccc(C(=O)N[C@@H](CCC(=O)O)C(=O)O)n3)cc2c(=O)[nH]1 [Compound 7, (6-(4-(2-Amino-4-oxo-4,7-dihydro-3H-pyrrolo[2,3-d]pyrimidin-6-yl)butyl)picolinoyl)-L-glutamic Acid]
- IC50 [3]: > 1000 nM
- IC50 growth inhibition, FRβ, D4 [3]: inactive

- IC50 growth inhibition, RFC/FRα/PCFT, KB [4]: inactive
SMILES: Nc1nc2[nH]c(CCC#Cc3ccc(C(=O)N[C@@H](CCC(=O)O)C(=O)O)nc3)cc2c(=O)[nH]1 [Compound 9, (5-(4-(2-Amino-4-oxo-4,7-dihydro-3H-pyrrolo[2,3-d]pyrimidin-6-yl)but-1-yn-1-yl)picolinoyl)-L-glutamic Acid]
- Fold less active than 6, FRα-expressing CHO cells [5]: ~ 4 fold

SMILES: Nc1nc2[nH]c(CCC#Cc3cccc(C(=O)N[C@@H](CCC(=O)O)C(=O)O)n3)cc2c(=O)[nH]1 [Compound 10, (6-(4-(2-Amino-4-oxo-4,7-dihydro-3H-pyrrolo[2,3-d]pyrimidin-6-yl)but-1-yn-1-yl)picolinoyl)-L-glutamic Acid]
- IC50 [3]: > 1000 nM
- IC50 growth inhibition, FRβ, D4 [3]: inactive
- IC50 ([5]; Homo sapiens, RT16, read-out: IC50 growth inhibition, FRα, RT16): > 1000 nM
- IC50 growth inhibition, FRα, RT16 ([5]; without folic acid, mean (SE)): no activity

SMILES: Nc1nc2[nH]cc(CCc3ccc(C(=O)N[C@@H](CCC(=O)O)C(=O)O)cc3)c2c(=O)[nH]1 [PMX, N-{4-[2-(2-amino-3,4-dihydro-4-oxo-7H-pyrrolo-[2,3-d]pyrimidin-5-yl)ethyl]benzoyl}-L-glutamic acid, reference compound]
- inhibition at 10 µM (PCFT; R2/PCFT4, pH 5.5, read-out: Inhibition of [3H]MTX transport by PCFT): ≥ 90%
- Antitumor activity toward NCI-IGROV1 tumors in vivo (in words) [2]: inactive

- Effect on [3H]MTX uptake by PCFT (PCFT; pH 5.5 and pH 6.8, 1 or 10 μM): no effect
SMILES: CN(Cc1cnc2nc(N)nc(N)c2n1)c1ccc(C(=O)N[C@@H](CCCNC(=O)c2ccccc2C(=O)O)C(=O)O)cc1 [PT523, Nα-(4-amino-4-deoxypteroyl)-Nδ-hemiphthaloyl-L-ornithine]

Reference: paper PMC6382392 (Journal of medicinal chemistry, 2018)
